According to patent US12479847B2 (DANA-FARBER CANCER INSTITUTE, INC., priority 2019, dated 2025):

Key:
Experiment in all cases: KINOMEscan (ScanMAX) kinase profiling
Format in all cases: binding
panel of 468 kinases [1] = target: T1, panel of 468 kinases (Homo sapiens, UniProt P30291); conditions: WEE1; 1 μM; read-out: % control
T1 construct: purchased KINOMEscan (ScanMAX) service

panel of 468 kinases [2] = target: T2, panel of 468 kinases (Homo sapiens, UniProt P42336, E545K); conditions: PIK3CA(E545K); 1 μM; read-out: % control
T2 construct: purchased KINOMEscan (ScanMAX) service

panel of 468 kinases [3] = target: T3, panel of 468 kinases (Homo sapiens, UniProt Q08881); conditions: ITK; 1 μM; read-out: % control
T3 construct: purchased KINOMEscan (ScanMAX) service
T3 sequence (Q08881 1-620): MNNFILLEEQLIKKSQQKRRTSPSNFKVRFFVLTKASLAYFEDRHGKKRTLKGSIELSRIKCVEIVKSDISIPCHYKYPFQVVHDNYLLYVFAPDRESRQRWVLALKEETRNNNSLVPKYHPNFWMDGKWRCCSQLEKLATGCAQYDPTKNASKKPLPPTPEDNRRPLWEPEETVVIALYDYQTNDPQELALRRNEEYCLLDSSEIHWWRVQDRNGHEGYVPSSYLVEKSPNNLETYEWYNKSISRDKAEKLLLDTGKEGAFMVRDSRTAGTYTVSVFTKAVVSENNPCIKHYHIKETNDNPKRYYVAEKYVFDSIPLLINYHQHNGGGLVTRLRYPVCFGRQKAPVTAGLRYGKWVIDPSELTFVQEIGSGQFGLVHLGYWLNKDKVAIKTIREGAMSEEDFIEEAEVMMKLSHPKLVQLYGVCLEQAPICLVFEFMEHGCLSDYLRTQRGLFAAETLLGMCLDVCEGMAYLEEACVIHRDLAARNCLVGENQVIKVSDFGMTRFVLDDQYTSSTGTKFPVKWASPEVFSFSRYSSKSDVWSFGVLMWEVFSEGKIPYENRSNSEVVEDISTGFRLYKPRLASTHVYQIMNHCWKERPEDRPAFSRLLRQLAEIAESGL

panel of 468 kinases [4] = target: T4, panel of 468 kinases (Homo sapiens, UniProt Q16566); conditions: CAMK4; 1 μM; read-out: % control
T4 construct: purchased KINOMEscan (ScanMAX) service
T4 sequence (Q16566 1-473): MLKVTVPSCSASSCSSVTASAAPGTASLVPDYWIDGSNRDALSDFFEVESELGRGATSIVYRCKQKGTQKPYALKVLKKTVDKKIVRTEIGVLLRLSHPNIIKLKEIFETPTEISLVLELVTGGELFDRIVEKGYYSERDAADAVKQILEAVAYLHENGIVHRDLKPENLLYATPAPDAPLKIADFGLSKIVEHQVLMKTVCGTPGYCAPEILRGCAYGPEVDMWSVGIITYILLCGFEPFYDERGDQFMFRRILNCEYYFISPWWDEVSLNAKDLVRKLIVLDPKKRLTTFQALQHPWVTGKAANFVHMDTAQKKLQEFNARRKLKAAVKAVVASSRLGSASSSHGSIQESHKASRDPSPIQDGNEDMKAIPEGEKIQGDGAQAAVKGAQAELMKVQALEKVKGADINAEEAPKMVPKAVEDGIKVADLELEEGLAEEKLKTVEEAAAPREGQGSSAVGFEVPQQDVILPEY

panel of 468 kinases [5] = target: T5, panel of 468 kinases (Homo sapiens, UniProt Q6ZN16); conditions: MAP3K15; 1 μM; read-out: % control
T5 construct: purchased KINOMEscan (ScanMAX) service
T5 sequence (Q6ZN16 1-1313): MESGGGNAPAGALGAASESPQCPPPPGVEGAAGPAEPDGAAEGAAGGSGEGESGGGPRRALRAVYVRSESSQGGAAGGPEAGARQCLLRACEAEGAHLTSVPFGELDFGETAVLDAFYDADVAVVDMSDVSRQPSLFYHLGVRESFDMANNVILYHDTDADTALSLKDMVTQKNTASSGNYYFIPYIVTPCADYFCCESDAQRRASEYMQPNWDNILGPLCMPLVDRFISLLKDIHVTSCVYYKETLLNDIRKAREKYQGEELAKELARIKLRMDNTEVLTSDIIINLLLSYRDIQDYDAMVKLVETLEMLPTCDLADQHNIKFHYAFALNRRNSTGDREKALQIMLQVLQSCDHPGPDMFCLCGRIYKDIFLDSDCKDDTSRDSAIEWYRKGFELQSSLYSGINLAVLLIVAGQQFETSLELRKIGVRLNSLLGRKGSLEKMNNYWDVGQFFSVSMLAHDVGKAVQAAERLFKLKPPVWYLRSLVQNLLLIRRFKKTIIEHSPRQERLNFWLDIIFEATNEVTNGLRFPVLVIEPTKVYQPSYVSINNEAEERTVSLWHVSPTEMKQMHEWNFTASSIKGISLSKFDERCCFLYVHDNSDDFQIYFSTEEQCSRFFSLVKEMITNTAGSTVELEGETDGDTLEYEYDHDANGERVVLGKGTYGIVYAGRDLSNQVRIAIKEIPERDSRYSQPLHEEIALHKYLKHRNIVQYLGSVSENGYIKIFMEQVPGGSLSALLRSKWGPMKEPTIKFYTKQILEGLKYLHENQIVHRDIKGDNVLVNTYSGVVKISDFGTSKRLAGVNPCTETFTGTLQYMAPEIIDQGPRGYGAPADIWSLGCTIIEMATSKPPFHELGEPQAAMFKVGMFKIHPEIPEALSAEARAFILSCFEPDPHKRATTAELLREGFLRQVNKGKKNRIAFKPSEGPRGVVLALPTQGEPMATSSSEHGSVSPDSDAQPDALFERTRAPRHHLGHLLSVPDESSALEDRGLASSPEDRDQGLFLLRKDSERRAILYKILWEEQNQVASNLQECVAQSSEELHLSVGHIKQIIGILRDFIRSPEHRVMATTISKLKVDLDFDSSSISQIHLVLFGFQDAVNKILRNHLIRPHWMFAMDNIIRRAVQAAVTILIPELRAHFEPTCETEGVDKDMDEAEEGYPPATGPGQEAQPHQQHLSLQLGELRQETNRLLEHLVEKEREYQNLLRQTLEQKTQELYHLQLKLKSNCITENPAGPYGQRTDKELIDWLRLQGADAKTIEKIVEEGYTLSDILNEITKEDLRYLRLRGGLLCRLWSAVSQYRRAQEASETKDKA

panel of 468 kinases [6] = target: T6, panel of 468 kinases (Homo sapiens, UniProt Q9NYY3); conditions: PLK2; 1 μM; read-out: % control
T6 construct: purchased KINOMEscan (ScanMAX) service
T6 sequence (Q9NYY3 whole entry): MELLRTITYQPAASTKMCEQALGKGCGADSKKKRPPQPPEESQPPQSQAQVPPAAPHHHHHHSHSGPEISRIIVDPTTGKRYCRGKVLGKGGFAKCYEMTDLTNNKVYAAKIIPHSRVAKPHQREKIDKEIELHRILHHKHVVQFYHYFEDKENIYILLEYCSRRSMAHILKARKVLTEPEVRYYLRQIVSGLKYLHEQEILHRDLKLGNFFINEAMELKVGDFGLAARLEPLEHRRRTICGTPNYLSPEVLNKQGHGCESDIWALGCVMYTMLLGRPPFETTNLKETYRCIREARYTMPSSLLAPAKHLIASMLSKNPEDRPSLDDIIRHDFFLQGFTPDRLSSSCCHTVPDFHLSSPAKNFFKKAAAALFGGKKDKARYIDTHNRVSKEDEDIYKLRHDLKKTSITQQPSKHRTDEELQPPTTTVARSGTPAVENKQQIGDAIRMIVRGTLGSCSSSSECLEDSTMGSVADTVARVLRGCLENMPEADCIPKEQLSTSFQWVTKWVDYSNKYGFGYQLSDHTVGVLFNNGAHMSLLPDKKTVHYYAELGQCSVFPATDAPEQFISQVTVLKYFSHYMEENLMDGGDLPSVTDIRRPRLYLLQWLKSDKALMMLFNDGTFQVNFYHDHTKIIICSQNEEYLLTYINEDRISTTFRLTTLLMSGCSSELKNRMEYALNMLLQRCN

T1 sequence (P30291 whole entry): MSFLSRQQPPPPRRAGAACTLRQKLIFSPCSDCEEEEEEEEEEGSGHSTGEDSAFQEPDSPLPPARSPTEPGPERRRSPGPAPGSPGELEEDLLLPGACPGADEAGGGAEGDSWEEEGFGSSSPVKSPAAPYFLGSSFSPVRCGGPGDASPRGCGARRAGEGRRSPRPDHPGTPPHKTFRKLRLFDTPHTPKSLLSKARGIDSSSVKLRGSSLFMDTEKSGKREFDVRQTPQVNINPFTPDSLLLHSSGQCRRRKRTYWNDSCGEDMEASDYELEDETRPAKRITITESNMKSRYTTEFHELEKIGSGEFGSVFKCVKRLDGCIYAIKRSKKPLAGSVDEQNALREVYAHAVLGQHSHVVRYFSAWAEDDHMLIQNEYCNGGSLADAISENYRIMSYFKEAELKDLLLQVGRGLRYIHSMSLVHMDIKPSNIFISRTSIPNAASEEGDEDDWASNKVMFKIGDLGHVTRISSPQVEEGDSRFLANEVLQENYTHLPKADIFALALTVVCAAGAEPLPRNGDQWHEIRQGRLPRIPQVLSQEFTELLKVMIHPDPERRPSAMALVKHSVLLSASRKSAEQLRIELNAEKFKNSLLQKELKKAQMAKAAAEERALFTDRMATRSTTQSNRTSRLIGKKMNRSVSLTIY
T2 sequence (P42336 whole entry E545K): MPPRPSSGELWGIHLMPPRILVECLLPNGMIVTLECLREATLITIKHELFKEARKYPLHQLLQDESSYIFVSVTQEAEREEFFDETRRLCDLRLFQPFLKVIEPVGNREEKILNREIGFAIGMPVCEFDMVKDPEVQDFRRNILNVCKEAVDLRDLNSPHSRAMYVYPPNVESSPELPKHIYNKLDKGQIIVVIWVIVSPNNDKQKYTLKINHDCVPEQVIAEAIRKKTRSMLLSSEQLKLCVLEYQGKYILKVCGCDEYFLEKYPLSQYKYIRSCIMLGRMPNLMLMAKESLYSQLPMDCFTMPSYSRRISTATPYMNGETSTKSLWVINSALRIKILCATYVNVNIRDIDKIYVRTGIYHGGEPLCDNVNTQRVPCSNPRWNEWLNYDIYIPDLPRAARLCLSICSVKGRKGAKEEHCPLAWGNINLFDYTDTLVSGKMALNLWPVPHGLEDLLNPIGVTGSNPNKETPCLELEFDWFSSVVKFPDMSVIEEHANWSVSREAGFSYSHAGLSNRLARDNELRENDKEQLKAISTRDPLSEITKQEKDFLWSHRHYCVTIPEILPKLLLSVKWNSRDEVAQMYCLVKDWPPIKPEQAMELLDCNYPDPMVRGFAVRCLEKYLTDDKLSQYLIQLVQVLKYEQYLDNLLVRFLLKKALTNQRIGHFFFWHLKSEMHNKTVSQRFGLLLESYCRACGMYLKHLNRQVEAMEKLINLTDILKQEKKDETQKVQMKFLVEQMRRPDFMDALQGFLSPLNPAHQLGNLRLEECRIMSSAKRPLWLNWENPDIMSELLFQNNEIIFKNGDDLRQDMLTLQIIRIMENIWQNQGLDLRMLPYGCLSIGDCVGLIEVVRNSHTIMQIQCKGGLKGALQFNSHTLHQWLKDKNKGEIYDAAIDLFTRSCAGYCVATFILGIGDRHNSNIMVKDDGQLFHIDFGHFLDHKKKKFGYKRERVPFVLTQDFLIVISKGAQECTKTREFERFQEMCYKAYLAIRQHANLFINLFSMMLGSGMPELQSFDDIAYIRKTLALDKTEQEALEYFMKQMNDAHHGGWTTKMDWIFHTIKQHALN

Row | Structure (SMILES) | remaining binding at 1 µM (panel of 468 kinases [1]) [%] | remaining binding at 1 µM (panel of 468 kinases [2]) [%] | remaining binding at 1 µM (panel of 468 kinases [3]) [%] | remaining binding at 1 µM (panel of 468 kinases [4]) [%] | remaining binding at 1 µM (panel of 468 kinases [5]) [%] | remaining binding at 1 µM (panel of 468 kinases [6]) [%]
1 | CNc1nc(Nc2ccc(S(=O)(=O)N3CCC(N4CCOCC4)CC3)cc2OC)nc2[nH]cc(Cl)c12 [Compound 12, 5-chloro-N2-(2-methoxy-4-((4-morpholinopiperidin-1-yl)sulfonyl)phenyl)-N4-methyl-7H-pyrrolo[2,3-d]pyrimidine-2,4-diamine] | 78 | 89 | 92 | 100 | 75 | 80
2 | CNc1nc(Nc2ccc(C(=O)N3CCC(N4CCOCC4)CC3)c3c2OCO3)nc2[nH]cc(Cl)c12 [Compound 75, (7-((5-chloro-4-(methylamino)-7H-pyrrolo[2,3-d]pyrimidin-2-yl)amino)benzo[d][1,3]dioxol-4-yl)(4-morpholinopiperidin-1-yl)methanone] | 95 | 100 | 100 | 100 | 39 | 82
3 | CNc1nc(Nc2ccc(P3(=O)CCN(C4CCOCC4)CC3)cc2OC)nc2[nH]cc(Cl)c12 [Compound 77, 4-(4-((5-chloro-4-(methylamino)-7H-pyrrolo[2,3-d]pyrimidin-2-yl)amino)-3-methoxyphenyl)-1-(tetrahydro-2H-pyran-4-yl)-1,4-azaphosphinane 4-oxide] | 93 | 94 | 97 | 100 | 46 | 75
